From PMC7337247 (Critical care medicine, 2020)
“Also recorded” adds a separate entry of the source. Like-named read-outs stand apart in the source and are kept apart here.

Columns and labels:
BLT1 [1] = assay: fMLF-induced heterologous desensitization: LTB4-induced Ca2+ depletion; assay type: cell-based, human; settings: fMLF 10 nM or 100 nM; 100 nM LTB4
CXCR2 [2] = assay: fMLF-induced heterologous desensitization: CXCL1-induced Ca2+ depletion; assay type: cell-based, human; settings: pre-treatment with fMLF; 5 nM CXCL1
[3] = system: wild type bone marrow PMN; assay: fMLF desensitization of migration to KC, wild type mouse BM-PMN; assay type: cell-based; settings: fMLF 100 nM or 1 μM for 45 min; KC 100 ng/mL; 60 min
Fpr2-KO bone marrow PMN = assay: fMLF desensitization of migration to KC, Fpr2-KO mouse BM-PMN; assay type: cell-based; settings: fMLF 100 nM or 1 μM for 45 min; KC 100 ng/mL; 60 min
Fpr1-KO bone marrow PMN = assay: fMLF desensitization of migration to KC, Fpr1-KO mouse BM-PMN; assay type: cell-based; settings: fMLF 100 nM or 1 μM for 45 min; KC 100 ng/mL; 60 min
human FPR1 = target: T1, human FPR1 (Homo sapiens, UniProt P21462); settings: cited from earlier work
T1 sequence (P21462 1-350): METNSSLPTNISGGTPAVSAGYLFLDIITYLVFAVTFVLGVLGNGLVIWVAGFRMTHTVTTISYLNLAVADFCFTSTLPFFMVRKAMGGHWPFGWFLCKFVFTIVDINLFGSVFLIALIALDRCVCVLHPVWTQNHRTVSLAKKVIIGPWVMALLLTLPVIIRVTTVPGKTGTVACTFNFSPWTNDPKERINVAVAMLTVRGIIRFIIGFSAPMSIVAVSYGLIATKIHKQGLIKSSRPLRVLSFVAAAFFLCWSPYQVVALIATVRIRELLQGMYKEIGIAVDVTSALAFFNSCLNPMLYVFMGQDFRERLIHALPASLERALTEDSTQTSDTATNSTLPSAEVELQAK

human PMN [4] = assay: PMN phagocytosis of pHrodo-labeled E. coli; assay type: cell-based; settings: 10 μg/mL Cytochalasin D, E. coli 20:1, 30 min 37°C
CXCR2 [5] = assay: Surface expression of CXCR2 by flow cytometry; assay type: cell-based, human; settings: 100 nM ND6; with or without 1 μM POL7200 pretreatment
BLT1 [6] = assay: Surface expression of BLT1 by flow cytometry; assay type: cell-based, human; settings: 100 nM ND6; with or without 1 μM POL7200 pretreatment; 3 separate experiments
human PMN [7] = settings: ref [7]; cited from earlier work

With “N-formyl-methionyl-leucyl phenylalanine [fMLF]” the “suppression of LTB4-induced Ca2+ response by fMLF pre-treatment” value (BLT1 [1]) was “markedly inhibits Ca^2+ flux response to LTB4; also recorded: significantly reduced calcium depletion”, the “suppression of CXCL1-induced Ca2+ response by fMLF pre-treatment” value (CXCR2 [2]) was “strongly inhibits that response; also recorded: significantly reduced calcium depletion” and the “effect of fMLF pre-exposure on migration toward KC, wild type” value [3] was “inhibited migration toward the CXC-chemokine KC; also recorded: desensitized to KC by prior fMLF exposure”. The “effect of fMLF pre-exposure on migration toward KC, Fpr2-KO” value (Fpr2-KO bone marrow PMN) was “inhibited migration toward the CXC-chemokine KC; also recorded: desensitized to KC by prior fMLF exposure”, the “effect of fMLF pre-exposure on migration toward KC, Fpr1-KO” value (Fpr1-KO bone marrow PMN) was “PMN migration to KC persisted; also recorded: protected from chemokine desensitization” and the “receptor through which it acts” value (human FPR1; nanomolar concentrations, ref [17]) was “acts exclusively through high-affinity human FPR1 receptors”.
In the case of `C=C1[C@@H](C)[C@H]2[C@H](Cc3ccccc3)NC(=O)[C@]23[C@H](OC(C)=O)/C=C/[C@@](C)(O)C(=O)[C@@H](C)C/C=C/[C@H]3[C@@H]1O` [Cytochalasin D], the “effect on phagocytosis, positive control” value (human PMN [4]) is reported as “expected suppression of phagocytosis” and the “effect on phagocytosis, positive control” value (human PMN [4]; listed as cytochalasin D) is reported as “inhibited PMN phagocytosis”.
In the case of fMMYALF [ND6], the “effect on CXCR2 surface expression” value (CXCR2 [5]) is given as “significantly reduces expression of CXCR2; also recorded: internalized and decreased the surface expression of CXCR2 and BLT1”, the “effect on BLT1 surface expression” value (BLT1 [6]) is given as “significantly reduces expression of BLT1” and the “receptor through which it acts” value (human FPR1; 100 nM, ref [7]) is given as “acts exclusively at FPR1”. The “potency as inducer of PMN Ca2+ release/chemotaxis” value (human PMN [7]) was “potent inducer of human PMN Ca^2+ release and chemotaxis; also recorded: even more potent than fMLF; also recorded: most potent human mtFP”.
